Reference: publication PMC8480901 (PLoS ONE, 2021)
Where “and” joins values, the source holds several entries; their conditions need not be identical. Equal entries are not always repeated.

Experiments:
[1] = test system: LPS-induced lung neutrophilia; test: LPS-induced lung neutrophilia: total and neutrophil cell counts in BALF; format: in vivo, BALB/c mice; conditions: LPS; for Neutrophils in BALF, Mean / Total cells/white blood cells in BALF, Mean / Neutrophils in BALF, individual mice / Total cells/white blood cells in BALF, individual mice: BALF 4 h after LPS
Procedure: Six-week-old male BALB/c mice (Charles River, Calco, Italy) were singly housed in a temperature-controlled (22°C±2°C) environment with a 12:12-hour light:dark cycle and free access to food and water. Mice were given ≥7 days for acclimation before all procedures. […] One day before the start of experimental procedures, all animals were randomized into 6 groups (n = 8/group). Animal group assignment was not blinded.
LPS lyophilized powder (2 mg; Sigma-Aldrich Chemie GmbH, Munich, Germany) from Escherichia coli (O111:B4) was dissolved in 10 mL cold saline (0.9%; Pliva, Zagreb, Croatia), vortexed, and further diluted by mixing 2 mL of this solution with 2 mL saline to reach a final concentration of 5 μg LPS/50 μL saline. […] Ketamine hydrochloride (Narketan 10) was acquired from Vetoquinol (Bern, Switzerland), and xylazine hydrochloride (Rompun, 2%) was acquired from Bayer (Leverkusen, Germany).
To induce pulmonary neutrophilia, mice in the control group received intranasal (IN) 50 μL saline, and all other animals received 5 μg LPS/50 μL saline IN per mouse.
Tracheostomy was performed, and a Buster cat catheter (1.0 × 130 mm; Kruuse, Langeskov, Denmark), shortened to 3 cm, was clamped into the trachea. The lungs were washed 3 times with cold phosphate-buffered saline (PBS; Sigma-Aldrich Chemie GmbH) in a total volume of 1 mL (0.4, 0.3, and 0.3 mL). The collected BALF samples were centrifuged (1303×g, 5 min, 4°C), and resulting cell pellets were each resuspended in 600 μL PBS. Samples were immediately analyzed for total and differential neutrophil cell counts via automated hematology analyzer (XT-2000iV; Sysmex, Kobe, Japan).
Differences between treated versus vehicle groups were determined using the Mann-Whitney test and were considered statistically significant when P<0.05. Outliers in the analysis of cytokine and chemokine concentrations were identified using the Grubbs test. No criteria were set for inclusion/exclusion of animals during the experiment or data points during the analysis.

[2] = test system: LPS-induced acute lung injury; conditions: pretreated mice vs no-treatment control group; cited from earlier work
[3] = Experiment 1, 1 mg/kg (IP), 1 mg/kg
[4] = Experiment 2, 0.5 mg/kg (PO), 0.5 mg/kg

C[C@@H]1C[C@H]2[C@@H]3CCC4=CC(=O)C=C[C@]4(C)[C@@]3(F)[C@@H](O)C[C@]2(C)[C@@]1(O)C(=O)CO [Dexamethasone]
Neutrophils in BALF: % reduction ([1]; Experiment 1, 1 mg/kg (IP)): 47% | Total cells/white blood cells in BALF: % reduction ([1]; Experiment 1, 1 mg/kg (IP)): 75% | Neutrophils in BALF, Mean ([1]; Experiment 1, 1 mg/kg (IP)): 2.8e+08 L⁻¹ | Total cells/white blood cells in BALF, Mean ([1]; Experiment 1, 1 mg/kg (IP)): 4.3e+08 L⁻¹ | Neutrophils in BALF, individual mice [1, 3]: 2.5e+08 L⁻¹ and 1.2e+08 L⁻¹ and 2.9e+08 L⁻¹ and 2.6e+08 L⁻¹ and 3e+08 L⁻¹ and 3.9e+08 L⁻¹ and 3.1e+08 L⁻¹ | Total cells/white blood cells in BALF, individual mice [1, 3]: 3.9e+08 L⁻¹ and 3.8e+08 L⁻¹ and 4.1e+08 L⁻¹ and 2.3e+08 L⁻¹ and 4.5e+08 L⁻¹ and 5.2e+08 L⁻¹ and 6.3e+08 L⁻¹ | Neutrophils in BALF: % reduction ([1]; Experiment 2, 0.5 mg/kg (PO)): 61% | Total cells/white blood cells in BALF: % reduction ([1]; Experiment 2, 0.5 mg/kg (PO)): 78% | Neutrophils in BALF, Mean ([1]; Experiment 2, 0.5 mg/kg (PO)): 2.4e+08 L⁻¹ | Total cells/white blood cells in BALF, Mean ([1]; Experiment 2, 0.5 mg/kg (PO)): 5e+08 L⁻¹ | Neutrophils in BALF, individual mice [1, 4]: 2.5e+08 L⁻¹ and 2e+08 L⁻¹ and 3.4e+08 L⁻¹ and 1.9e+08 L⁻¹ and 2.3e+08 L⁻¹ and 3.1e+08 L⁻¹ and 1.7e+08 L⁻¹ | Total cells/white blood cells in BALF, individual mice [1, 4]: 7e+08 L⁻¹ and 2.9e+08 L⁻¹ and 5.5e+08 L⁻¹ and 4.4e+08 L⁻¹ and 7.7e+08 L⁻¹ and 3.6e+08 L⁻¹ | LPS-induced pulmonary edema, accumulation of inflammatory cells in BALF, and increased inflammatory cytokines (eg, TNF-α and IL-6) [2]: significantly attenuated
